Results reported in patent US4254115A, “Phospholipid derivative with an antilipemic and antiarteriosclerotic effect” (A. Nattermann & Cie. GmbH, priority 1979, dated 1981).
Read-outs that look alike come from different tables or passages of the source.

Assays:
[1] = test system: triton-WR 1339 hyperlipemia (serum lipids); assay: Acute triton test (1 × prophylactic application) on rats; format: in vivo
Experimental: (a) Prophylactic application
The n-oleyl derivative (i.e., n-oleyl cephalin) was orally administered to the test animals. […] Forty-eight hours after the triton application, serum was analyzed for lipids and compared with a control group.

[2] = test system: triton-WR 1339 hyperlipemia (serum lipids); assay: Acute triton test (1 × therapeutic application) on rats; format: in vivo; conditions: for minimal effective dose: Rattus norvegicus, po, 48 h
Experimental: (b) Therapeutic application
One hour later the n-oleyl cephalin was orally administered. Forty-eight hours after the triton is administered, serum is analyzed for lipids and evaluated against a control group.

serum lipids = assay: Biochemical screening (unstressed rat); format: in vivo; conditions: oral, serum after 4 h
Experimental: (c) Biochemical screening
In accordance with the procedures set forth in Fletcher, M. J., Clin. Chim. […] Four hours later serum was analyzed for lipids and evaluated against a control group.

Acute toxicity, mouse = format: in vivo; conditions: in vivo
mouse = assay: Acute toxicity, mouse; format: in vivo
Acute toxicity, rat = format: in vivo; conditions: in vivo
rat = assay: Acute toxicity, rat; format: in vivo
[3] = background knowledge; cited from earlier work
[4] = clofibrate, prophylactic, whole test, no single lipid named
[5] = lowest effective dose, oral, prophylactic
[6] = oral, 24 h before triton, serum 48 h after triton
[7] = lowest dose with drop, therapeutic
[8] = oral, 1 h after triton, serum 48 h after triton

## CCOC(=O)C(C)(C)Oc1ccc(Cl)cc1 [Clofibrate, reference compound]
[1]; [4]
  Dosing ... very effective: 500 mg/kg BW
  Dosings up to ... ineffective: up to 250 mg/kg BW
[2]; lowest dose with drop, therapeutic, read-out: Phospholipids Drop from
  minimal effective dose: 500 mg/kg
[2]; lowest dose with drop, therapeutic, read-out: Total lipids Drop from
  minimal effective dose: 250 mg/kg
[2]; lowest dose with drop, therapeutic, read-out: Triglycerides Drop from
  minimal effective dose: 250 mg/kg
[2]; therapeutic
  Free cholesterol No effect up to: ≤ 500 mg/kg BW
  Total cholesterol No effect up to: ≤ 500 mg/kg BW
Serum lipids; read-out: Total cholesterol Drop from
  minimal effective dose: 50 mg/kg
Serum lipids; read-out: Total lipids Drop from
  minimal effective dose: 100 mg/kg
Serum lipids; read-out: Triglycerides Drop from
  minimal effective dose: 50 mg/kg
Acute toxicity, mouse
  LD50: 2960 mg/kg
mouse
  LD0 mouse: ~ 1470 mg/kg BW
Acute toxicity, rat
  LD50: 1100 mg/kg
rat
  LD0 rat: ~ 681 mg/kg BW

## CCCCC/C=C\C/C=C\CCCCCCCC(=O)NC1CCCCC1 [cyclohexyllinolamide]
[3]
  antiarteriosclerotic, antilipemic, metabolic or lipid-reducing effect in words: lipid-reducing effect

## n-oleylphosphatidylethanolamine [N-oleylcephalin]
[1]; [5]
  Free cholesterol Effect from: 0.10 mg/kg BW
  Total cholesterol Effect from: 0.01 mg/kg BW
[1]; [6]
  Phospholipids E.D.50: 0.62 mg/kg BW
  Total lipids E.D.50: 0.29 mg/kg BW
  Triglycerides E.D.50: 0.18 mg/kg BW
[2]; [7]
  Free cholesterol Drop from: 0.10 mg/kg BW
  Phospholipids Drop from: 0.10 mg/kg BW
[2]; [8]
  Total cholesterol E.D.50: 278.86 mg/kg BW
  Total lipids E.D.50: 8.49 mg/kg BW
Serum lipids
  Free cholesterol Drop from: 50 mg/kg BW
  Phospholipids Drop from: 50 mg/kg BW
  Total cholesterol Drop from: 50 mg/kg BW
  Total lipids Drop from: 50 mg/kg BW
  Triglycerides Drop from: 50 mg/kg BW
mouse
  LD0 mouse: > 4640 mg/kg BW
  LD50 mouse: > 4640 mg/kg BW
rat
  LD0 rat: > 5000 mg/kg BW
  LD50 rat: > 5000 mg/kg BW
